System: isolated guinea pig heart exposed to global ischemia
Assay: Cardiac ischemia-reperfusion injury in isolated perfused guinea pig heart (global no-flow ischemia 20 min, reperfusion 120 min)
Method: Procedures for the use of guinea pigs are in accordance with the guidelines established by the American Physiological Society. Adult male guinea pigs (200-300 g) will be anesthetized with a ketamine/xylazine cocktail (85/15 mg mL, respectively; ip delivery). Upon the absence of reflexes to ensure a deep plane of anesthesia, hearts will be excised via midline thoracotomy and immersed in ice-cold saline. Hearts will be cannulated by the aorta and perfused with a modified Krebs-Henseleit buffer containing (in mM): 118 NaCl, 24 NaHCO3, 4.75 KCl, 1.2 KH2PO4, 1.2 MgSO4, 2.0 CaCl2, and 10 glucose (gassed with 95/5% O2/CO2). Hearts will be placed in a buffer-filled perfusion chamber and maintained at 37° C. for the duration of the experiments.
Following the initiation of perfusion, hearts will be instrumented for the simultaneous observation of mechanical and electrical function. A buffer-filled latex balloon will be inserted into the left ventricle (via the mitral valve) for the measurement of left ventricular developed pressure, with balloon volume adjusted to establish an end-diastolic pressure of 5-8 mmHg. Three electrodes will be placed into the buffer-filled perfusion chamber for the measurement of volume-conducted ECG. A pre-established protocol of electrode placement will be utilized to obtain a signal analogous to Lead II of a typical 12-lead ECG. All physiological parameters will be continuously monitored and stored on a personal computer using commercially available software (Chart, AD Instruments).
After a 10-minute equilibration period, hearts will be divided into the following different treatment groups: 1. Control followed by I/R; 2. Administration of 1 nM ηArg-η2′6′-Dmt-ηLys-ηPhe-NH2 in the perfusate both before and after index ischemia; 3. Post-ischemic administration of 1 nM ηArg-η2′6′-Dmt-ηLys-ηPhe-NH2 using both a bolus dose (also 1 nM, administered immediately prior to reperfusion) and ηArg-η2′6′-Dmt-ηLys-ηPhe-NH2 in the reperfusion solution; 4. Positive control using ischemic preconditioning; 3 cycles of 5 min I/R before index ischemia).
Hearts will be exposed to global no-flow ischemia by stopping perfusion for 20 minutes. At the end of the index ischemia, static buffer from the perfusion lines will be washed out (via an accessory port proximal to the aortic cannula) and reperfusion ensued for 120 minutes. Administration of all compounds in the perfusate will be accomplished via dissolving the compound(s) in solution prior to administration. The reperfusion bolus dose will be delivered to the heart via syringe through a drug-delivery port just above the aortic cannula. At the end of the 2 h reperfusion protocol, the LV will be dissected, sliced into 5 mm-thick slices, incubated in triphenyltetrazolium chloride (TTC) for 10 minutes (37° C.), and digitally photographed for subsequent infarct size analysis. Infarct sizes are expressed as the infarcted area as a percentage of the LV (in the global ischemia model, the entire LV constitutes the zone-at-risk).

[1] = peptoid 0.01 nM, 0.1 nM, cyclosporin-A 0.2 μM

ηArg-η2′6′-Dmt-ηLys-ηPhe-NH2
Incidence of VT/VF (ventricular tachycardia and/or fibrillation) (0.01 nM/0.1 nM(30 min R)): protection against the incidence of VT/VF | Infarct size (infarcted area as a percentage of the LV) (1 nM or 0.1 nM or 0.001 nM or 0.01 nM/0.1 nM(30 min R), 20 min global ischemia, compared to control group): lower incidence of infarction (infarction size) | Baseline coronary flow rates (groups receiving 0.01 nM): slightly lower than other groups | Baseline heart rate [1]: no discernable effects | Baseline left ventricular developed pressure [1]: no discernable effects | Baseline rates of contraction/relaxation [1]: no discernable effects | Coronary flow rates (peptoid 1 nM, 0.1 nM, 0.01 nM to 0.1 nM, cyclosporin-A 0.2 uM, whole time or at reperfusion, vs control): no differences in coronary flow rates

Source: US20200157145A1, “NEUTRAL-CATIONIC PEPTOIDS AND USES THEREOF” (Stealth BioTherapeutics Corp, priority 2018, published 2020)
